How the values were obtained:
YAC-1 cells = experiment: 51Cr-release assay with splenocytes of injected mice as effectors and YAC-1 cells as targets for NK cells; format: in vivo
Experimental: Experimental protocol: Mice received 10 μg of alphaGalCer or alphaGalCerMPEG by s.c. route, whereas control animals were injected by intraperitoneal route with 100 μg of CpG. After 2 days, they were sacrified and their splenocytes were used as effector cells in a standard 51Cr-release assay using YAC-1 cells as targets for NK cells. Effector cells were washed and their concentration was adjusted to 1×10^6/ml. In parallel, target cells were incubated in RPMKI medium without FCS containing 100 μCi of 51Cr for 2 h. Then, target cells were extensively washed with RPMI medium containing FCS and co-incubated in triplicates with effector cells at different effector:target (E:T) ratios. After 4 h, cells were centrifuged and the radioactivity present in supernatants was measured by scintillation counting. Maximal lysis was determined after lysis with 5% […], whereas spontaneous lysis was measured in supernatants of untreated target cells. Results are expressed as percentage of lysed cells, accordingly to the formula: (sample−spontaneous lysis)/(maximal lysis−spontaneous lysis)×100.

[1] = background statement; cited from earlier work
[2] = tested on: in vitro re-stimulated spleen cells; experiment: Cytometric Bead Array of cytokines in supernatants of in vitro re-stimulated spleen cells from vaccinated mice; format: in vivo; details: parenteral administration (s.c.) with β-Gal
Experimental: To characterize the type of Th response stimulated following immunization, the content of IFN-γ, IL-2, IL-6, IL-10, MCP-1, and TNFα was measured in supernatants from in vitro re-stimulated spleen cells (FIGS. 8 and 9) by the Cytometric Bead Array. Culture supernatants from proliferating cells were collected on days 2 and 4, and stored at −70° C. Determinations of IFN-γ, TNFα, IL-2, IL-6, IL-10 and MCP-1 were performed by cytometric bead array analysis using the commercial kit from BectonDickinson, according to the manufacturer's instructions. A standard curve was generated for each cytokine by using the corresponding recombinant murine cytokines (Pharmingen). Probes were incubated at room temperature for additional 2 h. The probes were analyzed subsequently by flow cytometry as described in the protocol of BD.

[3] = tested on: Unstimulated spleen cells; experiment: In vitro stimulation of unstimulated spleen cells ([3H]thymidine uptake); format: cell-based, mice; details: 4 days
Experimental: Experimental protocol: Spleens from female BALB/c (H-2d, Harlan Winkelmann) or CD1d−/− (Jackson Laboratories) mice of 6 weeks of age were removed and pooled for analysis of cellular immune responses. Cells were grown in RPMI 1640 supplemented with 10% fetal calf serum, 100 U/ml of penicillin, 50 μg/ml of streptomycin, 5×10^−5 M 2-mercaptoethanol and 1 mM L-glutamine (GIBCO BRL, Karlsruhe, Germany) and maintained at 37° C. in a humidified 5% CO2 atmosphere. Spleen cell suspensions were adjusted to 5×10^6 cells/ml in complete medium, cells were seeded with 100 μl per well in a flat-bottomed 96-well microtiter plate (Nunc) and plates were incubated for 4 days. Unstimulated spleen cells were incubated in the presence of different concentrations of the new adjuvants to analyze the in vitro stimulation capacity of alphaGalCerMPEG. T cell mediated immune responses were investigated at day 38 by measuring the proliferation of cells recovered from spleens after in vitro restimulation with β-Gal. […] Cells were then harvested on paper filters (Filtermat A; Wallac, Freiburg, Germany) by using a cell harvester (Inotech, Wohlen, Switzerland), and the amount of incorporated [3H]thymidine into the DNA of proliferating cells was determined by a β-scintillation counter (Wallac 1450, Micro-Trilux). The results are expressed as the arithmetic mean of [3H]thymidine uptake in cpm.

[4] = tested on: spleens of vaccinated mice; experiment: Elispot of beta-Gal specific cytokine secreting cells in spleens of vaccinated mice; format: in vivo
Experimental: Experimental protocol: Spleens from vaccinated mice were removed and pooled for analysis of cellular immune responses. The protocol for vaccination was identical to the protocol described in Example 3. Cells were grown in RPMI 1640 supplemented with 10% fetal calf serum, 100 U/ml of penicillin, 50 μg/ml of streptomycin, 5×10^−5 M 2-mercaptoethanol and 1 mM L-glutamine (GIBCO BRL, Karlsruhe, Germany) and maintained at 37° C. in a humidified 5% CO2 atmosphere. Lymph node and spleen cell suspensions were adjusted to 5×10^6 cells/ml in complete medium, cells were seeded with 100 μl per well in a flat-bottomed 96-well microtiter plate (Nunc) and plates were incubated 24 h (IFNgamma) or 48 h (IL-2 and IL-4) in the absence or presence of a beta-Gal peptide (TPHARIGL) encompassing a MHC class I-restricted epitope (for IFNgamma) or the beta-Gal protein (for IL-2 and IL-4), at a concentration of 10 μM. Then, cells were removed and the plates processed according to manufacture's instructions. Colored spots were counted with a C.T.L. Elispot reader and analysed using the ImmunoSpot image analyzer software v3.2.
Thus, to further characterize the T helper responses, the number of beta-Gal specific IFNgamma, IL-2 and IL-4 secreting cells present in spleens of vaccinated mice was determined. In agreement with the above results for IgG isotypes, high numbers of IL-4 secreting cells were detected in mice receiving alphaGalCerMPEG or alphaGalCer (FIG. 10).

C57BI6 mice = experiment: VITAL assay (in vivo CTL), lysis of OVA peptide-pulsed target cells in immunized mice; details: 10 μg adjuvant with 50 μg Ovalbumin
Experimental: Experimental protocol: Six to eight weeks-old female C57BI6 mice were purchased from Harlan Winkelmann GmbH (Borchen, Germany) and treated in accordance with local and European Community guidelines. Groups of 5 mice each were immunized on day 1, 14 and 28 with 50 μg Ovalbumin (Sigma, Germany) alone or with 10 μg alphaGalCerMPEG or alphaGalCer. For intranasal immunization, 10 μl were applied to each naris, whereas for the s.c. injection Ovalbumin (ova) with or without alphaGalCerMPEG or alphaGalCer was resuspended in a volume of 50 μl PBS per animal. The determination of the in vivo lymphocyte-mediated cytotoxicity followed a protocol described by Hermans et. Al. (Herman, I. F., et. Al., 2004, The vital assay, J Immunol Methods, 285, 25-40). A suspension of splenocytes from naïve mice was depleted of red cells and split into two equal portions. The target cell preparation was labelled with a high concentration (1 μM) of CFSE (Molecular Probes) and pulsed for 1 h at 37° C. with the dominant OVA peptide (aa 257-264) at a concentration of 15 μg/ml. […] Cells from spleens were analyzed by flow cytometry after 16 h and 40 h, with the FACScalibur using the software BD cell Quest Pro. […] Cytotoxic activity was assessed with any variability in the proportion of cells in the different target populations assessed in a non-immunized control group for CTL assays.

## CCCCCCCCCCCCCCCCCCCCCCCCCC(=O)N[C@@H](CO[C@H]1O[C@H](CO)[C@H](O)[C@H](O)[C@H]1O)[C@H](O)[C@H](O)CCCCCCCCCCCCCC [alphaGalCer, alpha-Galactosylceramide]
YAC-1 cells; effector:target ratio 50:1, splenocytes 2 days after injection
  lysis of YAC-1 cells: 34%
YAC-1 cells; effector:target ratio 100:1, splenocytes 2 days after injection
  lysis of YAC-1 cells: 37%
[1]
  solubility in aqueous solvents: poor
[2]
  secretion of IFNgamma: significant enhanced secretion
  secretion of IL-10: significant enhanced secretion
  secretion of TNFalpha: significant enhanced secretion
[3]
  stimulation of unstimulated spleen cells with different concentrations: no dose dependent increase
[4]; spleens of vaccinated mice, beta-Gal protein 10 μM, 48 h
  number of IL-4 secreting cells: high numbers
[4]; stimulation with MHC class I restricted peptide, 24 h
  number of IFNgamma secreting cells: increased to a significant minor extent
[4]; stimulation with β-Gal protein, 48 h
  number of IL-2 secreting cells: increased to a significant minor extent
C57BI6 mice
  fold increase of the cytotoxic potential of splenocytes with respect to OVA antigen alone (5%): 6.4 fold
C57BI6 mice; day 1, 14 and 28
  specific lysis of peptide-coated target cells: 30%

Source: patent publication US8053417B2, “Hexosylceramides as adjuvants and their uses in pharmaceutical compositions” (Helmholtz-Zentrum fuer Infektionsforschung GmbH, priority 2005, dated 2011)
